Laboratory results as given in ChEMBL document CHEMBL1201862, “PubChem BioAssay data set” (2004).
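These data come from cells grown in 96-well plates and exposed to compound for 48 hours at five concentrations. GI50 is the concentration that inhibits growth by half.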 Active and inactive are the calls of the source. Cut-off read from the data, not from the text of the source: active = GI50 up to about 1.1 µM and inactive = higher.

Assays:
Test in all cases: NCI anticancer screen, dose series, 48 h
COLO 205 = tested on: COLO 205
HL-60 = tested on: HL-60
HOP-62 = tested on: HOP-62
HOP-92 = tested on: HOP-92
KM12 = tested on: KM12
LOX IMVI = tested on: LOX IMVI
M14 = tested on: M14
MDA-MB-231 = tested on: MDA-MB-231
MDA-N = tested on: MDA-N
NCI-H226 = tested on: NCI-H226
NCI-H460 = tested on: NCI-H460
RPMI-8226 = tested on: RPMI-8226
SF-268 = tested on: SF-268
SK-MEL-5 = tested on: SK-MEL-5
SK-OV-3 = tested on: SK-OV-3
SNB-75 = tested on: SNB-75
UACC-257 = tested on: UACC-257
UACC-62 = tested on: UACC-62
MOLT-4 = tested on: MOLT-4
K562 = tested on: K562

SMILES	GI50 (COLO 205)	GI50 (HL-60)	GI50 (HOP-62)	GI50 (HOP-92)	GI50 (KM12)	GI50 (LOX IMVI)	GI50 (M14)	GI50 (MDA-MB-231)	GI50 (MDA-N)	GI50 (NCI-H226)	GI50 (NCI-H460)	GI50 (RPMI-8226)	GI50 (SF-268)	GI50 (SK-MEL-5)	GI50 (SK-OV-3)	GI50 (SNB-75)	GI50 (UACC-257)	GI50 (UACC-62)	GI50 (MOLT-4)	GI50 (K562)
CN(CC(=O)O)Cc1c(O)c(Cl)cc(Cl)c1Cl	34.6 µM (inactive)	13.9 µM (inactive)	29 µM (inactive)	23.4 µM (inactive)	31.2 µM (inactive)	14 µM (inactive)	22.2 µM (inactive)	45.2 µM (inactive)	47.2 µM (inactive)	22.8 µM (inactive)	5.13 µM (inactive)	37.4 µM (inactive)	21.4 µM (inactive)	24.7 µM (inactive)	> 100 µM (inactive)	92.5 µM (inactive)	19.8 µM (inactive)	23.1 µM (inactive)	–	–
COC(=O)C1=C(C(=O)OC)C2OC1c1cc3ccccc3cc12	1.82 µM (inactive)	0.0841 µM (active)	17.6 µM (inactive)	1.69 µM (inactive)	23.7 µM (inactive)	15.2 µM (inactive)	2.1 µM (inactive)	17.7 µM (inactive)	6.62 µM (inactive)	5.15 µM (inactive)	22.2 µM (inactive)	2.33 µM (inactive)	18.3 µM (inactive)	16.9 µM (inactive)	18.8 µM (inactive)	23.3 µM (inactive)	6.32 µM (inactive)	14.5 µM (inactive)	1.54 µM (inactive)	–
CC(=O)O[C@@H]1[C@H]2[C@@H](OC(=O)c3ccccc3)[C@@H](C)C[C@]2(O)[C@H](OC(C)=O)[C@@]2(C)[C@@H]3CC(C)(C)C(=O)[C@]3(OC(C)=O)C[C@@]12C	7.05 µM (inactive)	1.35 µM (inactive)	10.9 µM (inactive)	8.24 µM (inactive)	> 25 µM (inactive)	> 25 µM (inactive)	20.8 µM (inactive)	> 25 µM (inactive)	8.91 µM (inactive)	> 25 µM (inactive)	2.06 µM (inactive)	–	> 25 µM (inactive)	18.7 µM (inactive)	> 25 µM (inactive)	1.95 µM (inactive)	> 25 µM (inactive)	> 25 µM (inactive)	2.09 µM (inactive)	–
CO/N=C1\CCC2(O)C3Cc4ccc(O)c5c4C2(CCN3CC2CC2)[C@H]1O5 (stereo partly drawn)	> 100 µM (inactive)	> 100 µM (inactive)	> 100 µM (inactive)	> 100 µM (inactive)	> 100 µM (inactive)	> 100 µM (inactive)	> 100 µM (inactive)	> 100 µM (inactive)	> 100 µM (inactive)	> 100 µM (inactive)	–	> 100 µM (inactive)	> 100 µM (inactive)	> 100 µM (inactive)	> 100 µM (inactive)	–	–	> 100 µM (inactive)	> 100 µM (inactive)	> 100 µM (inactive)
Cc1cn([C@@H]2C[C@H]2CO)c(=O)[nH]c1=O	> 100 µM (inactive)	> 100 µM (inactive)	> 100 µM (inactive)	> 100 µM (inactive)	> 100 µM (inactive)	> 100 µM (inactive)	> 100 µM (inactive)	> 100 µM (inactive)	> 100 µM (inactive)	> 100 µM (inactive)	> 100 µM (inactive)	> 100 µM (inactive)	> 100 µM (inactive)	> 100 µM (inactive)	–	> 100 µM (inactive)	> 100 µM (inactive)	> 100 µM (inactive)	> 100 µM (inactive)	> 100 µM (inactive)
C=CCNC1=C2C[C@@H](C)C[C@@H](OC)[C@H](OC(=O)CN(C)C)[C@H](C)/C=C(\C)[C@@H](OC(N)=O)[C@H](OC)/C=C\C=C(/C)C(=O)NC(=CC1=O)C2=O	< 0.0126 µM (active)	0.406 µM (active)	0.0604 µM (active)	6.12 µM (inactive)	0.024 µM (active)	0.0641 µM (active)	0.0485 µM (active)	2.56 µM (inactive)	0.0281 µM (active)	–	0.0479 µM (active)	0.832 µM (active)	2.54 µM (inactive)	0.0538 µM (active)	0.0279 µM (active)	0.114 µM (active)	0.0748 µM (active)	0.0467 µM (active)	1.43 µM (inactive)	0.151 µM (active)
COc1ccc(C(=O)N(C(=S)OCCOc2ccccc2)c2ccccc2)cc1	30.5 µM (inactive)	20.2 µM (inactive)	71.3 µM (inactive)	20 µM (inactive)	31.3 µM (inactive)	52 µM (inactive)	43.3 µM (inactive)	86.1 µM (inactive)	35.1 µM (inactive)	–	34.1 µM (inactive)	14.6 µM (inactive)	44 µM (inactive)	–	52.7 µM (inactive)	1.63 µM (inactive)	34.8 µM (inactive)	48 µM (inactive)	19.7 µM (inactive)	23.8 µM (inactive)
